Results: patent publication US9034866B2 (Genentech, Inc., priority 2012, dated 2015)

Biological target: nuclear factor-kappa B (NF-kB)-inducing kinase (NIK) (Homo sapiens (Human), UniProt Q99558)
Experiment: NIK Enzyme Inhibition Assay (Transcreener ADP fluorescence polarization)
Format: biochemical
Settings: purified NIK 0.2-1 nM, 10 uM ATP, Morrison's quadratic equation; read-out: NIK ADP-FP (Ki uM)
Protocol: NIK Enzyme Inhibition Assay: The ability of the nuclear factor-kappa B (NF-kB)-inducing kinase (NIK) to catalyze the hydrolysis of adenosine-5′-triphosphate (ATP) was monitored using the Transcreener ADP (adenosine-5′-diphosphate) assay (BellBrook Labs). Purified NIK (0.2-1 nM) derived from a baculovirus-infected insect cell expression system was incubated with test compounds for 1-3.5 hours in 50 mM 2-[4-(2-hydroxyethyl)piperazin-1-yl]ethanesulfonic acid buffer (pH 7.2) containing 10 mM MgCl2, 2 mM dithiothreitol, 10 uM ATP, 0.01% Triton X-100, 0.1% gamma-globulins from bovine blood, 1% dimethylsulfoxide (DMSO), 12 ug/mL ADP antibody and 4 nM ADP-AlexaFluor® 633 tracer. Reactions were quenched by the addition of 20 mM 2,2′,2″,2′″-(ethane-1,2-diyldinitrilo)tetraacetic acid and 0.01% Brij 35. The tracer bound to the antibody was displaced by the ADP generated during the NIK reaction, which causes a decrease in fluorescence polarization that was measured by laser excitation at 633 nm with a Fluorescence Correlation Spectroscopy Plus reader (Evotec AG).

nuclear factor-kappa B (NF-kB)-inducing kinase (NIK), sequence (Q99558 whole entry): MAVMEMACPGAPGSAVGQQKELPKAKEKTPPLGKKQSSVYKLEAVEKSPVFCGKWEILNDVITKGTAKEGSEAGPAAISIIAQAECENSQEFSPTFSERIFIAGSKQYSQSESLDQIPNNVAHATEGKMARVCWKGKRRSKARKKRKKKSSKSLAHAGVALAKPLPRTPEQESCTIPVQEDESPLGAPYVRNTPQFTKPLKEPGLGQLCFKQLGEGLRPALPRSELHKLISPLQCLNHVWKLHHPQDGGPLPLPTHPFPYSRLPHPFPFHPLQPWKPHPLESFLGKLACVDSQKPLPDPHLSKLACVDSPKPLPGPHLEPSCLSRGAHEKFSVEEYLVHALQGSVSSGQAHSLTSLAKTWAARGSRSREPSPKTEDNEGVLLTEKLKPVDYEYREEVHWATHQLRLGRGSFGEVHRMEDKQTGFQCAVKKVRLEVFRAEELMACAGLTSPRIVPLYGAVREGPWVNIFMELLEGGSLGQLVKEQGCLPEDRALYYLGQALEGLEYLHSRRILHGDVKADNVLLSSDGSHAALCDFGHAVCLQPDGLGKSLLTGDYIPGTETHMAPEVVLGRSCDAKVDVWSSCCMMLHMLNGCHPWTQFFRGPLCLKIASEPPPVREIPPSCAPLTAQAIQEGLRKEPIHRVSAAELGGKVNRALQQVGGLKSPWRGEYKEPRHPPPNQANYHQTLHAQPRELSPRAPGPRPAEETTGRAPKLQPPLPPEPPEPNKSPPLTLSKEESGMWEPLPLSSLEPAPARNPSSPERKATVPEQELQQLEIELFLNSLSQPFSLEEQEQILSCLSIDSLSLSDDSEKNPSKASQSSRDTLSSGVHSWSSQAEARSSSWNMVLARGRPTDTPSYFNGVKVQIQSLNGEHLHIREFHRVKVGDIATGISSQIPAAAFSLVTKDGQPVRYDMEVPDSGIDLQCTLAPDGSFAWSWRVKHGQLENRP

Structure (SMILES) | Ki
CC(C)(O)C#Cc1cc2c(cc1F)OCCn1c-2nc(C(N)=O)c1Cc1ccccc1 [Example 24, 3-benzyl-8-fluoro-9-(3-hydroxy-3-meth-yl-but-1-ynyl)-4,5-dihydro-6-oxa-1,3a-diaza-benzo[e]azulene-2-carboxylic acid amide] | 0.011 µM
CC(=O)NC1COc2ccc(C#CC(C)(C)O)cc2-c2nc(C(N)=O)sc21 (centres unmarked) [Example 26, 4-acetylamino-9-(3-hydroxy-3-methyl-but-1-ynyl)-4,5-dihydro-6-oxa-3-thia-1-aza-benzo[e]azulene-2-carboxylic acid amide] | 0.21 µM
Cc1nnc(C(C)(C#Cc2ccc3c(c2)-c2nc(C(N)=O)cn2CCO3)CO)[nH]1 (centres unmarked) [Example 28, 9-[4-hydroxy-3-methyl-3-(5-methyl-4H-[1,24]triazol-3-yl)-but-1-ynyl]-4,5-di-hydro-6-oxa-1,3a-diaza-benzo[e]azulene-2-carboxylic acid amide] | > 5 µM
NC(=O)c1cn2c(n1)-c1cc(C#CC3(O)CCNC3)ccc1OCC2 (centres unmarked) [Example 29, 9-(3-hydroxy-pyrrolidin-3-ylethynyl)-4,5-dihydro-6-oxa-1,3a-diaza-benzo[e]azu-lene-2-carboxylic acid amide] | > 5 µM
NC(=O)c1cn2c(n1)-c1cc(C#CC3(O)CC4CCC(C3)N4)ccc1OCC2 (centres unmarked) [Example 31, 9-(3-hydroxy-8-aza-bicyclo[3.2.1]oct-3-ylethynyl)-4,5-dihydro-6-oxa-1,3a-diaza-benzo[e]azulene-2-carboxylic acid amide] | > 5 µM
CC(O)(C#Cc1cc2c(cc1F)OCCn1cc(C(N)=O)nc1-2)C(N)=O (centres unmarked) [Example 52, 9-(3-carbamoyl-3-hydroxy-but-1-ynyl)-8-fluoro-4,5-dihydro-6-oxa-1,3a-diaza-benzo[e]azulene-2-carboxylic acid amide] | 3.6 µM
CC(O)(C#Cc1cc2c(cc1F)OCCn1cc(C(N)=O)nc1-2)C(F)(F)F (centres unmarked) [Example 56, 8-fluoro-9-(4,4,4-trifluoro-3-hydroxy-3-methyl-but-1-ynyl)-4,5-dihydro-6-oxa-1,3a-diaza-benzo[e]azulene-2-carboxylic acid amide] | 2 µM
CC(C)(O)C#Cc1cc2c(cc1F)OCCn1c-2nc(C(N)=O)c1C(=O)NC1(C)COC1 [Example 60] | 0.025 µM
NC(=O)c1cn2c(n1)-c1cc(C#CC3(O)CC(CO)C3)c(F)cc1OCC2 (centres unmarked) [Example 76] | 2.3 µM
CN1CCCC(NC(=O)c2c(C(N)=O)nc3n2CCOc2cc(F)c(C#CC(C)(C)O)cc2-3)C1 (centres unmarked) [Example 78] | 0.06 µM
CC(O)(C#Cc1cc2c(cc1F)OCCn1cc(C(N)=O)nc1-2)C(=O)NC1CC1 (centres unmarked) [Example 94] | 0.854 µM
CC(O)(C#Cc1cc2c(cc1F)OCCn1cc(C(N)=O)nc1-2)c1ccc(F)cn1 (centres unmarked) [Example 101, 8-fluoro-9-[3-(5-fluoro-pyridin-2-yl)-3-hydroxy-but-1-ynyl]-4,5-dihydro-6-oxa-1,3a-diaza-benzo[e]azulene-2-carboxy-lic acid amide] | 3.5 µM
CC(O)(C#Cc1cc2c(cc1F)OCCn1cc(C(N)=O)nc1-2)c1ccc(Cl)cn1 (centres unmarked) [Example 102, 9-[3-(5-chloro-pyridin-2-yl)-3-hydroxy-but-1-ynyl]-8-fluoro-4,5-dihydro-6-oxa-1,3a-diaza-benzo[e]azulene-2-carboxy-lic acid amide] | > 5 µM
CC(C)(O)C#Cc1ccc2c(c1)-c1nc(C(N)=O)c(-c3cc[nH]n3)n1CCO2 [Example 110] | 0.023 µM
CC(C)(C#Cc1ccc2c(c1)-c1nc(C(N)=O)cn1CCO2)CO [Example 171] | > 5 µM
CC(C)(O)C#Cc1ccc2c(c1)-c1nc(C(N)=O)cn1C1CC2C1 [Example 179, 10-(3-hydroxy-3-methyl-but-1-ynyl)-5,6,7,12-tetrahydro-5,7-methanobenzo[c]imi-dazo[1,2-a]azepine-2-carboxamide] | 0.022 µM

More lines, in order of falling Ki, values ahead:

Ki | Structure (SMILES)
0.403 µM | CN(C)C(=O)CC1COc2ccc(C#CC(C)(C)O)cc2-c2nc(C(N)=O)sc21 (centres unmarked) [Example 43, 4-dimethylcarbamoylmethyl-9-(3-hydro-xy-3-methyl-but-1-ynyl)-4,5-dihydro-6-oxa-3-thia-1-aza-benzo[e]azulene-2-car-boxylic acid amide]
0.304 µM | CC(O)(C#Cc1cc2c(cc1F)OCCn1cc(C(N)=O)nc1-2)C(=O)N1CC(C#N)C1 (centres unmarked) [Example 95]
0.172 µM | CC(C)(O)C#Cc1cc2c(cc1F)OCCn1c-2nc(C(N)=O)c1C#N [Example 33, 3-cyano-8-fluoro-9-(3-hydroxy-3-methyl-but-1-ynyl)-4,5-dihydro-6-oxa-1,3a-diaza-benzo[e]azulene-2-carboxylic acid amide]
0.16 µM | CC(C)N(C)Cc1c(C(N)=O)nc2n1C1CC(C1)c1cc(F)c(C#CC(C)(C)O)cc1-2 [Example 223]
0.142 µM | CC(O)C(C)(O)C#Cc1cc2c(cc1F)OCCn1cc(C(N)=O)nc1-2 (centres unmarked) [Example 142]
0.062 µM | Cc1cc([C@](C)(O)C#Cc2cc3c(cc2C)OCCn2cc(C(N)=O)nc2-3)no1 [Example 38, 9-[(R)-3-hydroxy-3-(5-methyl-isoxazol-3-yl)-but-1-ynyl]-8-methyl-4,5-dihydro-6-oxa-1,3a-diaza-benzo[e]azulene-2-car-boxylic acid amide]
0.057 µM | CC(C)(O)C#Cc1ccc2c(c1)-c1nc(C(N)=O)sc1C(F)(F)CO2 [Example 27, 4,4-diriuoro-9-(3-hydroxy-3-methyl-but-1-ynyl)-4,5-dihydro-6-oxa-3-thia-1-aza-benzo[c]azulene-2-carboxylic acid amide]
0.037 µM | CC(C)(O)C#Cc1cc2c(cc1F)OCCn1c-2nc(C(N)=O)c1C1CC1 [Example 36, 3-cyclopropyl-8-fluoro-9-(3-hydroxy-3-methyl-but-1-ynyl)-4,5-dihydro-6-oxa-1,3a-diaza-benzo[e]azulene-2-carboxylic acid amide]
0.036 µM | CC(O)(C#Cc1ccc2c(c1)-c1nc(C(N)=O)cn1C1CC2C1)CO (centres unmarked) [Example 181, 10-(3,4-dihydroxy-3-methyl-but-1-ynyl)-5,6,7,12-tetrahydro-5,7-methanoben-zo[c]imidazo[1,2-a]azepine-2-carboxamide]
0.025 µM | Cc1c(C(N)=O)nc2n1CCOc1cc(F)c(C#CC(C)(C)O)cc1-2 [Example 34, 8-fluoro-9-(3-hydroxy-3-methyl-but-1-ynyl)-3-methyl-4,5-dihydro-6-oxa-1,3a-diaza-benzo[e]azulene-2-carboxylic acid amide]
0.025 µM | CC(O)(C#Cc1cc2c(cc1F)OCCn1cc(C(N)=O)nc1-2)c1ncccc1F (centres unmarked) [Example 252]
0.023 µM | Cc1nn(C)cc1C(O)c1c(C(N)=O)nc2n1CCOc1cc(F)c(C#CC(C)(C)O)cc1-2 (centres unmarked) [Example 169]
0.012 µM | CC(C)(O)C#Cc1cc2c(cc1F)OCCn1c-2nc(C(N)=O)c1Cc1ccccc1F [Example 25, 8-fluoro-3-(2-fluoro-benzyl)-9-(3-hydro-xy-3-methyl-but-1-ynyl)-4,5-dihydro-6-oxa-1,3a-diaza-benzol[e]azulene-2-car-boxylic acid amide]
0.009 µM | COCC(C)(O)C#Cc1cc2c(cc1F)OCCn1c-2nc(C(N)=O)c1-c1nc(C2CC2)n[nH]1 (centres unmarked) [Example 213]
0.007 µM | CNC(=O)c1c(C(N)=O)nc2n1CCOc1cc(F)c(C#C[C@@](C)(O)c3noc(C)n3)cc1-2 [Example 97, 8-fluoro-9-[(R)-3-hydroxy-3-(5-methyl-[1,2,4]oxadiazol-3-yl)-but-1-ynyl]-4,5-dihydro-6-oxa-1,3a-diaza-ben-zo[e]azulene-2,3-dicarboxylic acid 2-amide 3-methylamide]
0.0059 µM | CN1CCCC(O)(C#Cc2ccc3c(c2)-c2nc(C(N)=O)cn2CCO3)C1=O (centres unmarked) [Example 158]
0.005 µM | CC(O)(C#Cc1cc2c(cc1F)OCCc1sc(C(N)=O)nc1-2)CF (centres unmarked) [Example 117, 8-fluoro-9-(4-fluoro-3-hydroxy-3-meth-yl-but-1-ynyl)-4,5-dihydro-6-oxa-3-thia-1-aza-benzo[e]azulene-2-carboxylic acid amide]
0.004 µM | CC(C)(O)C#Cc1cc2c(cc1F)OCCn1c-2nc(C(N)=O)c1C(=O)NCC1COC1 [Example 91]
0.003 µM | CC(C)(O)C#Cc1cc2c(cc1F)OCCn1c-2nc(C(N)=O)c1-c1cc[nH]n1 [Example 35, 8-fluoro-9-(3-hydroxy-3-methyl-but-1-ynyl)-3-(1H-pyrazol-3-yl)-4,5-dihydro-6-oxa-1,3a-diaza-benzo[e]azulene-2-car-boxylic acid amide]
0.003 µM | NC(=O)c1cn2c(n1)-c1cc(C#CC3(O)CCCC3)ccc1C1CC2C1 [Example 37, 9-[2-(1-hydroxycyclopentyl)ethynyl]-2,5-diazatetra-cyclo[11.1.1.0^2,6.0^7,12]pen-tadeca-3,5,7,9,11-pentaene-4-carboxamide]
0.0021 µM | CC(O)(C#Cc1cc2c(cc1F)OCCc1sc(C(N)=O)nc1-2)c1ncn[nH]1 (centres unmarked) [Example 182, 8-fluoro-9-[3-hydroxy-3-(1H-1,2,4-tria-zol-5-yl)but-1-ynyl]-4,5-dihydro-[I]ben-zoxepino[5,4-d]thiazole-2-carboxamide]
0.002 µM | CC(O)(C#Cc1cc2c(cc1F)OCCn1cc(C(N)=O)nc1-2)c1cc(CO)on1 (centres unmarked) [Example 32, 8-fluoro-9-[3-hydroxy-3-(5-hydroxymeth-yl-isoxazol-3-yl)-but-1-ynyl]-4,5-dihy-dro-6-oxa-1,3a-diaza-benzo[c]azulene-2-carboxylic acid amide]
